# Measured values reported in publication PMC12040169 (PLOS Biology, 2025).
# Experiment: in vitro
# Conditions: human, hela cells, % viability
row,SMILES,"viability at 28.5 h, 10 µM"
1,O=C(O)CCc1ccc(-c2ccc(N3CCN(CCN4CCCC4)CC3)nc2)cc1 [CBK037796],103%
2,Cc1ccc(-c2cccc(N3CCN(CCN4CCCC4)CC3)n2)cc1C [CBK037799],113%
3,c1ccc(-c2ccc(Nc3ccc4c(c3)OCCO4)nc2)cc1 [CBK037802],98.3%
4,N#Cc1cccc(Nc2cncc(-c3cccc(C(=O)NCCO)c3)n2)c1 [CBK037810],97.1%
5,N#Cc1ccc(-c2cc(N3CCN(C(=O)c4ccco4)CC3)ncn2)cc1 [CBK037813],98.2%
6,c1ccc2c(-c3cc(Nc4ccc5[nH]ccc5c4)ncn3)cccc2c1 [CBK037815],42.9%
7,O=C(c1ccco1)N1CCN(c2cc(-c3ccccc3Oc3ccccc3)ncn2)CC1 [CBK037817],96.8%
8,CC(=O)Nc1cccc(-c2cncc(NCCc3c[nH]c4ccccc34)n2)c1 [CBK037820],97.9%
9,O=C(O)CCc1ccc(-c2cc(N3CCN(c4ccccn4)CC3)ncn2)cc1 [CBK037821],105%
10,Nc1ccc(C(=O)Nc2ccc(Nc3cc(-c4cccnc4)ncn3)cc2)cc1 [CBK037823],94.6%
11,CN(C)c1cccc(-c2cc(N3CCN(c4ccccn4)CC3)ncn2)c1 [CBK037825],104%
12,CCCC/C=C/c1cncc(NC2CCC(O)CC2)n1 (centres unmarked) [CBK037840],105%
13,O=C(c1ccco1)N1CCN(c2cc(-c3ccc(OCc4ccccc4)cc3)ncn2)CC1 [CBK037844],97.6%
14,O=C(O)c1cccc(-c2cncc(NCCCN3CCOCC3)n2)c1 [CBK037850],104%
15,OCc1ccccc1-c1cncc(NCCc2c[nH]c3ccccc23)n1 [CBK037852],93.2%
16,CC(C)(CO)CNc1cncc(-c2cccc(Cl)c2)n1 [CBK037862],102%
17,c1ccc(CNc2nc(-c3ccsc3)cn3ccnc23)cc1 [CBK037868],88%
18,CN(C)CCN(C)c1nc(-c2ccc(C(=O)O)cc2)cn2ccnc12 [CBK037880],96.7%
19,CC(C)(CO)CNc1cncc(-c2cccnc2)n1 [CBK037881],89.8%
20,CCC(CO)Nc1cncc(-c2cc(OC)c(OC)c(OC)c2)n1 (centres unmarked) [CBK037882],98.9%
21,NC1CCC(Nc2cncc(-c3ccc(F)c(Cl)c3)n2)CC1 (centres unmarked) [CBK037893],99.6%
22,CN(C)c1ccc(-c2cn3ccnc3c(NC3CC3)n2)cc1 [CBK037894],103%

row,SMILES,"viability at 28.5 h, 10 µM"
1,COc1cc(-c2cn3ccnc3c(N3CCN(c4ccncc4)CC3)n2)cc(OC)c1OC [CBK037896],86.6%
2,c1ccc2cc(-c3cncc(NCc4ccncc4)n3)ccc2c1 [CBK037899],92.2%
3,COc1cncc(-c2cncc(NCCCN3CCOCC3)n2)c1 [CBK037902],84%
4,OCCC1CCCCN1c1cncc(-c2cccc(Cl)c2)n1 (centres unmarked) [CBK037906],108%
5,c1cnc2c(-c3cn4ccnc4c(NC4CC4)n3)cccc2c1 [CBK037911],111%
6,O=C(O)c1cccc(-c2cncc(NCc3ccncc3)n2)c1 [CBK037915],106%
7,CCCC/C=C/c1cncc(N2CCN(C(=O)c3ccco3)CC2)n1 [CBK037918],91.3%
8,COc1ccc(C(C)C)cc1-c1cncc(N2CCN(c3ccccc3C#N)CC2)n1 [CBK037927],98.8%
9,OCCN1CCN(c2nc(C3CCOC3)cn3ccnc23)CC1 (centres unmarked) [CBK037931],98.5%
10,CC(C)c1ccc(-c2cncc(NCCCO)n2)cc1 [CBK037937],106%
11,COc1ncc(-c2cncc(NCCO)n2)c(OC)n1 [CBK037939],106%
12,OCc1cccc(-c2cncc(NCCc3cccnc3)n2)c1 [CBK037946],98.8%
13,CN(C)CCN(C)c1nc(-c2cc(C(F)(F)F)cc(C(F)(F)F)c2)cn2ccnc12 [CBK037971],104%
14,CC(=O)Nc1cccc(-c2nccnc2NCc2ccc3c(c2)OCO3)c1 [CBK037972],97.1%
15,COc1cc(-c2cncc(N3CCC(C(=O)O)CC3)n2)cc(OC)c1OC [CBK037973],100%
16,CC(=O)c1ccc(-c2nccnc2NCC2CC2)s1 [CBK037975],104%
17,c1cc(CCNc2nccn3ccnc23)ccn1 [CBK037976],99.2%
18,COc1ccccc1-c1cn2ccnc2c(NCCc2ccccn2)n1 [CBK037980],107%
19,COc1ccc(N2CCN(c3cncc(-c4cc(OC)c(OC)c(OC)c4)n3)CC2)cc1OC [CBK037988],99.9%
20,CN(C)C(=O)COc1cccc(Nc2nc(Br)cn3ccnc23)c1 [CBK037989],92.8%
21,COc1cc(-c2nccnc2N2CCCN(C)CC2)cc(OC)c1OC [CBK037994],97.8%
22,O=C(O)c1ccc(CNC(=O)c2cnc(-c3ccc(F)cc3)c(-c3ccc(O)cc3)c2)cc1 [CBK037996],101%

row,SMILES,"viability at 28.5 h, 10 µM"
1,CC(=O)Nc1cccc(-c2nccnc2NCC(c2cccnc2)N(C)C)c1 (centres unmarked) [CBK037998],95.6%
2,CCNc1nc(-c2ccc3[nH]ccc3c2)cn2ccnc12 [CBK038002],99.5%
3,OCc1ccc(-c2nccnc2NCCc2c[nH]c3ccccc23)cc1 [CBK038004],98.8%
4,CN(C)CCN(C)c1nc(-c2ccc(F)c(Cl)c2)cn2ccnc12 [CBK038007],95.7%
5,COCCNc1nccnc1-c1ccccc1CO [CBK038010],108%
6,COc1ccc(-c2nccnc2N2CCN(C)CC2)cc1 [CBK038012],113%
7,COc1cc(-c2nccnc2NCCc2c[nH]c3ccccc23)cc(OC)c1OC [CBK038015],102%
8,Nc1cccc(-c2cc(C(=O)NCCc3cccnc3)cnc2-c2ccc(F)cc2)c1 [CBK038016],102%
9,FC(F)(F)Oc1cccc(-c2cn3ccnc3c(NCCc3ccccn3)n2)c1 [CBK038017],96.7%
10,O=C(O)CCc1ccc(-c2cn3ccnc3c(NCc3ccncc3)n2)cc1 [CBK038022],90.6%
11,COc1cc(-c2nccnc2N[C@@H](CO)C(C)C)cc(OC)c1OC [CBK038023],111%
12,Brc1cn2ccnc2c(NCc2ccccn2)n1 [CBK038024],88.7%
13,COc1ccc(-c2cc(C(=O)Nc3ccc(O)cc3)cnc2-c2ccc(F)cc2)cc1 [CBK038026],95.5%
14,COc1cc(C(O)CNC(=O)c2cnc(-c3ccc(F)cc3)c(-c3cccc(N)c3)c2)ccc1O (centres unmarked) [CBK038032],98.8%
15,CN(C)C(CNc1nccnc1-c1ccc(CO)cc1)c1cccnc1 (centres unmarked) [CBK038038],87.6%
16,Clc1ccccc1-c1cn2ccnc2c(NCc2cccnc2)n1 [CBK038039],94.5%
17,CCN(CCO)c1ccc(Nc2nc(-c3ccc(F)c(Cl)c3)cn3ccnc23)cc1 [CBK038042],100%
18,O=C(O)CCc1ccc(-c2cn3ccnc3c(Nc3ccc(Br)cc3)n2)cc1 [CBK038058],113%
19,COc1cc(CNc2nc(Br)cn3ccnc23)cc(OC)c1OC [CBK038060],110%
20,COc1cc(Nc2nc(-c3ccc4[nH]ccc4c3)cn3ccnc23)cc(OC)c1OC [CBK038069],95.5%
21,CC(C)[C@H](CO)Nc1nc(-c2ccc3c(c2)OCO3)cn2ccnc12 [CBK038071],101%
